Experimental data: patent publication US5676937A, “Deodorant compositions comprising inhibitors of odor-producing axillary bacterial exoenzymes” (Colgate-Palmolive Company, priority 1995, dated 1997)
Where two headings read alike, the source gives them in different places.

Columns and labels:
beta-glucuronidase [1] = target: T1, beta-glucuronidase (Escherichia coli, UniProt P05804); experiment: Semiquantitative assay of beta-glucuronidase (4-MUG to fluorescent 4-MU); assay type: biochemical, E. coli; parameters: key: + indicates enzyme inhibition; - indicates no enzyme inhibition; conditions: test inhibitor at 0.1 mM to 100 mM, 37° C., Tris pH 7, fluorescence by UV lamp
T1 construct: purchased Sigma Chemical Co
Procedure: (§1) B-glucuronidase from E. coli and aryl sulfatase from Aerobacter aerogenes, 4-methyl umbelliferyl glucuronide, 4-methylumbelliferyl sulfate, 4-methylumbelliferone, and D-saccharic acid-.tangle-solidup.-lactone were purchased from Sigma Chemical Co. Sodium hexametaphosphate (SPORIX) was obtained from International Sourcing.
(§2) Semiquantitative assays of the exoenzymes beta-G and AS were prepared. The enzyme assays measure conversion at 37° C. of the non-fluorescent substrates 4-MUG (for beta-G) and 4-MUS (for AS) to fluorescent product, 4-MU. The assay mixtures contained:
(§3) For the semiquantitative studies, fluorescence was detected by long-wave UV lamp (Black-Light Eastern Corporation Model XX 15).
(§4) The effects of inhibitors on the enzymatic reactions were assessed by substituting aqueous Solutions of test inhibitor, at 0.1 mM to 100 mM, for the water. To rule out quenching of the fluorescence reaction by the inhibitors separate tests were performed comparing the fluorescence from 4-MU at the maximum concentration expected in the enzyme reaction mixtures with either inhibitor solution or water.
Various inhibiting compounds of mammalian beta-G's and AS's, as well as related materials, were tested in the assay. The classic inhibitor of beta-G is saccharic acid-.tangle-solidup.-lactone (glucarolactone). This material was tested as well as the simple sugars, mannose, fucose and galactosamine and the polysaccharide pullulan. One of the reported inhibitors of beta-G, EDTA, is a strong chelating agent. Also tested against the enzyme were o-phenanthroline, citrate, gluconate, nitrilotriacetate and hexametaphosophate.

aryl sulfatase [2] = target: T2, aryl sulfatase (Klebsiella aerogenes, UniProt P20713); assay type: biochemical; parameters: key: + indicates enzyme inhibition; - indicates no enzyme inhibition
T2 construct: purchased Sigma Chemical Co
T2 sequence (P20713 21-464): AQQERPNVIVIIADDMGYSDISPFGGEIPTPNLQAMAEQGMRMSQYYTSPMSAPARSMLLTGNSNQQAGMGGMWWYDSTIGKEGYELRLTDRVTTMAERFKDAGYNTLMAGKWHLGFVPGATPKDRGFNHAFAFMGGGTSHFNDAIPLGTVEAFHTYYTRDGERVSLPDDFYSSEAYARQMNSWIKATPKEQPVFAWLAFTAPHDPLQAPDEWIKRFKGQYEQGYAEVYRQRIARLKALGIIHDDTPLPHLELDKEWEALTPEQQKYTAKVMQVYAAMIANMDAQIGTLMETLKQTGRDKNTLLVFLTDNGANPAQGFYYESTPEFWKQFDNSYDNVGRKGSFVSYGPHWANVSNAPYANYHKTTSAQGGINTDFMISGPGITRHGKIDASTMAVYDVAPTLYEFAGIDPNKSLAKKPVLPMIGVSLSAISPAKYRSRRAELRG
Procedure: as §1, §2, §3, §4
Various inhibiting compounds of mammalian beta-G's and AS's, as well as related materials, were tested in the assay. The classic inhibitor of beta-G is saccharic acid-.tangle-solidup.-lactone (glucarolactone). This material was tested as well as the simple sugars, mannose, fucose and galactosamine and the polysaccharide pullulan. […] Also tested against the enzyme were o-phenanthroline, citrate, gluconate, nitrilotriacetate and hexametaphosophate.

mixture of AS and betaG = experiment: Inhibition of odor from apocrine secretion treated with enzymes (panel odor evaluation); assay type: biochemical, E. coli; Aerobacter aerogenes; conditions: enzymes (AS + betaG) + apocrine sweat + inhibitor 40 mM; 37° C.; evaluated at 24 hr and 48 hr; panel of five
Procedure: (§5) Apocrine secretion fluid was collected from eleven subjects. The axillary area was shaved, washed with a 0.1% solution of Triton X-100, rinsed with water, blotted dry, then rinsed with hexane. An intradermal injection of 0.1 ml of 1:2000 adrenaline was performed to stimulate the apocrine glands. Micropipettes (10 μl) were placed directly against the skin to collect the droplets of apocrine secretion. Samples were frozen until ready for use. The samples were eluted from the capillary tubes with 0.1M Tris buffer, pH 7.0, when ready for use in the odor-generation studies. Lipophilic diphtheroid cultures isolated from human axillae were obtained.
(§6) Inhibiting compounds were then tested to determine their effect on odor production in apocrine secretion. Sterile, odorless apocrine secretion was eluted from capillaries into 1.5 ml of 0.1M Tris buffer, pH 7.0. In the first study, apocrine sweat was treated with beta-glucuronidase, (E. coli) and aryl sulfatase (Aerobacter aerogenes) at 0.01 mg/ml in Tris buffer, 0.1M, pH 7.0. The apocrine secretion was also treated with the lipophilic diphtheroid and with a mixed culture of axillary bacteria, each in sterile saline suspension.
(§7) In a second study, inhibitors of the two enzymes were included in the reaction mixtures--Zn++ as Zn-Glycinate, saccharic acid lactone and hexametaphosphate. The concentration of each inhibitor used in this study was 40 mM. […]

aryl sulfatase [3] = target: T2, aryl sulfatase; experiment: Quantitative fluorimetric assay of AS; assay type: biochemical; conditions: FIG. 4; relative initial rate vs log inhibitor concentration; 37° C.
Procedure: As in the semi-quantitative tests, the progress of the reactions was indicated by the development of fluorescent product 4-MU from the non-fluorescent substrates, 4-MUG and 4-MUS. The data was recorded as fluorescence emission intensity as a function of time. […] At each concentration, the beginning slope indicates the initial reaction rate. These rates were then expressed as a fraction of the uninhibited reaction rate and plotted against the log of the inhibitor concentration.

beta-glucuronidase [4] = target: T1, beta-glucuronidase; experiment: Quantitative fluorimetric assay of beta-G; assay type: biochemical, E. coli; conditions: FIG. 3; for level at which inhibition of beta-G is provided: in words; for effective inhibitor concentration range for beta-G: relative initial rate vs log inhibitor concentration, 37° C.
Procedure: In addition to the semiquantitative assays several inhibitors of each, beta-G and AS, were assayed by quantitative fluorimetry. […] Prior to the performance of quantitative assays it was necessary to determine absorption and emission maxima of the fluorescent product 4-MU, as well as a concentration range for which the fluorescence intensity of this species varies linearly with concentration. A solution of 4-MU, 2 μg.ml, was prepared in 0.1M Tris buffer, pH 7.0. The absorption spectrum was scanned, giving a maximum at 334 nm. The emission maximum, 444 nm, was obtained by scanning the emission spectrum while irradiating at 334 nm. All quantitative fluorescence studies employed these parameters.
The levels of 4-MU generated in beta-G and AS assays fell into range 1. The conversion factor was 1 fluorescence unit=0.09 μM 4-MU.
Samples were prepared as described above. All components, except the enzyme, were warmed to 37° C. before addition of the enzyme. During the assays, reaction mixtures were maintained at 37° C. Fluorescence intensities were measured as a function of time.
As in the semi-quantitative tests, the progress of the reactions was indicated by the development of fluorescent product 4-MU from the non-fluorescent substrates, 4-MUG and 4-MUS. The data was recorded as fluorescence emission intensity as a function of time. […] Similar plots were constructed for each inhibitor. At each concentration, the beginning slope indicates the initial reaction rate. These rates were then expressed as a fraction of the uninhibited reaction rate and plotted against the log of the inhibitor concentration.

S. aureus = experiment: Minimum inhibitory concentration, S. aureus; assay type: cell-based; conditions: ">" = growth at the highest concentration
Procedure: (§8) Minimum Inhibitory Concentration (MIC) values of several zinc complexes were measured for three organisms that occur naturally in the axilla: S. epidermidis, S. aureus and a lipophilic diphtheroid.
(§9) Simple salts of zinc are known to be bacteriostatic. An outcome of the experiments was producing a method to reduce axillary odor without destroying the natural flora of the axilla. Therefore MIC values of several zinc complexes and the antiseptic Irgasan DP 300 (positive control) were measured against several organisms that occur naturally in the underarm, including S epidermidis, S. aureus, and a lipophilic diphtheroid. The ">" signs indicate that bacterial growth occurred at the highest concentration of zinc compound. None of the zinc compounds were conspicuously inhibitory, having effective levels ranging from 0.1 to 1%.

S. epidermidis = experiment: Minimum inhibitory concentration, S. epidermidis; assay type: cell-based; conditions: ">" = growth at the highest concentration
Procedure: as §8, §9

lipophilic diphtheroid [5] = experiment: Minimum inhibitory concentration, lipophilic diphtheroid; assay type: cell-based; conditions: ">" = growth at the highest concentration
Procedure: as §8, §9

axillary odor = experiment: Human clinical study of axillary deodorancy; assay type: in vivo; conditions: for Mean Odor Score: four-judge average, ten-point scoring, Zn-GLY […], ACH 5.0%
Procedure: The negative control was water. Odor assessments were performed by four experienced professional evaluators from Hill Top Research, using a ten-point scoring system. Ninety subjects were recruited, and baseline scores were established after a twenty-four hour conditioning period. Sixty subjects with highest scores (all greater than 4) were retained for the study.
During the test the subjects were entered into a regimen of timed, supervised washes with conditioning soap bars, followed by supervised treatments with the test solutions and post-treatment odor evaluation. The evaluations were conducted at 5-hr and 24-hr intervals following treatments 2, 3 and 4 and all aspects were randomized to eliminate any biases.
Scores of the four judges were averaged for each person, for each evaluation. The axilla-to-axilla difference for each person was taken as the index of the deodorancy of the test material versus the water control.
The positive control was 5.0% aluminum chlorhydrate. […] The negative control was distilled deionized water.
The mean odor scores represent the four-judge average odor scores, post-treatment. The control values are the average baseline odor scores for the various cells.

lipophilic diphtheroid [6] = experiment: Inhibition of odor from apocrine secretion treated with lipophilic diphtheroids (panel odor evaluation); assay type: cell-based; conditions: lipophilic diphtheroids + apocrine sweat + inhibitor 40 mM; 37° C.; evaluated at 24 hr and 48 hr; panel of five
Procedure: as §5, §6, §7

[7] = test inhibitor at 0.1 mM to 100 mM, 4-MUS, 37° C., Tris pH 7, fluorescence by UV lamp

T1 sequence (P05804 whole entry): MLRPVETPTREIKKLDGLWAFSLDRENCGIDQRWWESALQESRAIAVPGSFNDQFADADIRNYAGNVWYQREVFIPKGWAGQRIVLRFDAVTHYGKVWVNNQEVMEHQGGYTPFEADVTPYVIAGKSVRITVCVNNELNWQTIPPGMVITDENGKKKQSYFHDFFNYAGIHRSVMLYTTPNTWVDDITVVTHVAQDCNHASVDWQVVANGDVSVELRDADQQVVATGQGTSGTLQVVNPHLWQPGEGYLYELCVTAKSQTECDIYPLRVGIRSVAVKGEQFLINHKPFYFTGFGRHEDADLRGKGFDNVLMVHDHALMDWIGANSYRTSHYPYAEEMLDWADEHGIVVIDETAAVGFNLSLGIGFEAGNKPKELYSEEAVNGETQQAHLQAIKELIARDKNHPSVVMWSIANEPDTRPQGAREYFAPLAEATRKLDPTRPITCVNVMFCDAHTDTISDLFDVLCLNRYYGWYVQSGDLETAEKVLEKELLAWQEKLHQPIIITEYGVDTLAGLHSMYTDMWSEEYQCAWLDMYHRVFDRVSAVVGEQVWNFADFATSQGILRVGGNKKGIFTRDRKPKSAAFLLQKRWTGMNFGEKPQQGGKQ

O=S(=O)([O-])[O-].[Na+].[Na+] [Sodium sulfate]
inhibition of BETA-G (beta-glucuronidase [1]): +

N[C@H]1C(O)O[C@H](CO)[C@H](O)[C@@H]1O (stereo partly shown) [Galactosamine, galactosamine]
inhibition of BETA-G (beta-glucuronidase [1]): -

O=P1([O-])OP(=O)([O-])OP(=O)([O-])OP(=O)([O-])OP(=O)([O-])OP(=O)([O-])O1.[Na+].[Na+].[Na+].[Na+].[Na+].[Na+] [hexametaphosphate, Sodium hexametaphosphate]
inhibition of AS (aryl sulfatase [2]; [7]): + | odor (mixture of AS and betaG): Faint/moderate musky-sweaty | effective inhibitor concentration range for AS (aryl sulfatase [3]): 10-100 82 M | inhibition of BETA-G (beta-glucuronidase [1]): +

c1cnc2c(c1)ccc1cccnc12 [O-phenanthroline, o-phenanthroline]
inhibition of BETA-G (beta-glucuronidase [1]): + | level at which inhibition of beta-G is provided (beta-glucuronidase [4]): millimolar levels

[Zn+2] [Zn++]
inhibition of AS (aryl sulfatase [2]; [7]): + | effective inhibitor concentration range for AS (aryl sulfatase [3]): 10-100 82 M | inhibition of BETA-G (beta-glucuronidase [1]): + | effective inhibitor concentration range for beta-G (beta-glucuronidase [4]): 10 to 100 µM

Oc1cc(Cl)ccc1Oc1ccc(Cl)cc1Cl [Irgasan, reference compound]
MIC, STAPHYLOCOCCUS AUREUS (S. aureus): < 0.5 ppm | MIC, STAPHYLOCOCCUS EPIDERMIS (S. epidermidis): < 0.5 ppm | MIC, LIPOPHILIC DIPHTHEROID (lipophilic diphtheroid [5]): 16 ppm

mannose
inhibition of BETA-G (beta-glucuronidase [1]): -

[Cu+2] [Cu++]
inhibition of AS (aryl sulfatase [2]; [7]): + | effective inhibitor concentration range for AS (aryl sulfatase [3]): 0.1 to 10 µM | inhibition of BETA-G (beta-glucuronidase [1]): + | effective inhibitor concentration range for beta-G (beta-glucuronidase [4]): 10 to 100 µM

fucose
inhibition of BETA-G (beta-glucuronidase [1]): -

pullulan
inhibition of BETA-G (beta-glucuronidase [1]): -

O=C(O)CN(CCN(CC(=O)O)CC(=O)O)CC(=O)O [EDTA, reference compound]
inhibition of AS (aryl sulfatase [2]; [7]): - | inhibition of BETA-G (beta-glucuronidase [1]): + | level at which inhibition of beta-G is provided (beta-glucuronidase [4]): millimolar levels

O=P(O)(O)O [Orthophosphate]
inhibition of AS (aryl sulfatase [2]; pH 7): +

[Cl-].[Cl-].[Zn+2] [ZnCl2]
MIC, STAPHYLOCOCCUS AUREUS (S. aureus): > 1000 ppm | MIC, STAPHYLOCOCCUS EPIDERMIS (S. epidermidis): > 1000 ppm | MIC, LIPOPHILIC DIPHTHEROID (lipophilic diphtheroid [5]): > 1000 ppm

O=C(O)CC(O)(CC(=O)O)C(=O)O [Citrate]
inhibition of BETA-G (beta-glucuronidase [1]): -

aluminum chlorhydrate [ACH]
% Difference (decrease in odor vs H2O axilla) (axillary odor; application #2, 5 hr): 34.0% | Mean Odor Score (axillary odor; application #2, 5 hr): 3.13 | % Difference (decrease in odor vs H2O axilla) (axillary odor; application #2, 24 hr): 27.8% | Mean Odor Score (axillary odor; application #2, 24 hr): 3.91 | % Difference (decrease in odor vs H2O axilla) (axillary odor; application #3, 5 hr): 28.8% | Mean Odor Score (axillary odor; application #3, 5 hr): 2.95 | % Difference (decrease in odor vs H2O axilla) (axillary odor; application #3, 24 hr): 26.1% | Mean Odor Score (axillary odor; application #3, 24 hr): 3.88 | % Difference (decrease in odor vs H2O axilla) (axillary odor; application #4, 5 hr): 34.9% | Mean Odor Score (axillary odor; application #4, 5 hr): 2.90 | % Difference (decrease in odor vs H2O axilla) (axillary odor; application #4, 24 hr): 29.5% | Mean Odor Score (axillary odor; application #4, 24 hr): 3.64

O=C(O)[C@@H](O)[C@H]1OC(=O)[C@H](O)[C@H]1O [D-glucaro-.tangle-solidup.-lactone, D-saccharic acid-.tangle-solidup.-lactone, reference compound]
odor (mixture of AS and betaG): No odor to faint musky-sweaty | odor (lipophilic diphtheroid [6]): Moderate sweaty | inhibition of BETA-G (beta-glucuronidase [1]): + | effective inhibitor concentration range for beta-G (beta-glucuronidase [4]): 1-10 μm
